pIC50: −log10 of the molar value.
Assays:
MAGL [1] = target: T1, MAGL (Mus musculus, UniProt O35678); experiment: Mouse brain proteomes from inhibitor treated mice (oral gavage, brain proteome ABPP 4 h after administration); type: in vivo; settings: mouse brain proteome 4 h after administration
T1 construct: from tissue; host or cells: brain of wild-type C57Bl/6J mice dosed by oral gavage
T1 sequence (O35678 1-303): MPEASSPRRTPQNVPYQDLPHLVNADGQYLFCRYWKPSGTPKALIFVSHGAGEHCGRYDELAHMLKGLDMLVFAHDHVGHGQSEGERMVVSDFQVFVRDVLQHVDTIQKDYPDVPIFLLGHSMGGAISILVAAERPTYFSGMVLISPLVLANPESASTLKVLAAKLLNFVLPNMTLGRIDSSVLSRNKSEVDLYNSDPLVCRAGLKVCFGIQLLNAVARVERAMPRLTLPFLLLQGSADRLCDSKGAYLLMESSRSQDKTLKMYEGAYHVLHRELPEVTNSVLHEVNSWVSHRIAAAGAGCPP
Procedure: Preparation of Mouse Brain Proteomes from Inhibitor Treated Mice.
Inhibitors were administered to wild-type C57B1/6J by oral gavage in a vehicle of polyethylene glycol. Each animal was sacrificed 4 h following administration and brain proteomes were prepared and analyzed according to previously established methods (See Niphakis, M. J., et al. (2011) ACS Chem. Neurosci. and Long, J. Z., et al. Nat. Chem. Biol. 5:37-44).

MGLL = target: T2, MGLL (Mus musculus, UniProt O35678); experiment: In vitro competitive activity-based protein profiling, mouse brain proteome (MGLL); type: biochemical; settings: for % Inh MGLL Brain (Mouse, μM): concentration not given (μM)
T2 construct: Brain; from tissue; host or cells: mouse brain proteome
T2 sequence (O35678 1-303): T1 sequence (O35678 1-303)

ABHD6 = target: T3, ABHD6 (Mus musculus, UniProt Q8R2Y0); experiment: In vitro competitive activity-based protein profiling, mouse brain proteome (ABHD6); type: biochemical; settings: for % Inh ABHD6 Brain (Mouse, μM): mouse brain proteome, concentration not given (μM)
T3 construct: Brain; from tissue; host or cells: mouse brain proteome
T3 sequence (Q8R2Y0 1-336): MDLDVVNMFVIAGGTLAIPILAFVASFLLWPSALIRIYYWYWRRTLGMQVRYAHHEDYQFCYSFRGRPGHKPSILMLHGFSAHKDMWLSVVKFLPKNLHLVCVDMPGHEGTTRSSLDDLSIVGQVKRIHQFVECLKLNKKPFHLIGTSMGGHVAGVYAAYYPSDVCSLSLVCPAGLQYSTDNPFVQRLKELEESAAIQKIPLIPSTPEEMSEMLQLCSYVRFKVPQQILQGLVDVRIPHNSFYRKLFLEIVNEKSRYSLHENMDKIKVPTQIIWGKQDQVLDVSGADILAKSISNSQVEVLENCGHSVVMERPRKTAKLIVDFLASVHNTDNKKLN
Procedure: [The source words this procedure for another target and reports this target under the same test.] In Vitro Competitive Activity-Based Protein Profiling.
Proteomes (human prefrontal cortex or cell membrane fractions) (50 μL, 1.0 mg/mL total protein concentration) were preincubated with varying concentrations of inhibitors at 37° C. After 30 min, FP-Rh or HT-01 (1.0 μL, 50 μM in DMSO) was added and the mixture was incubated for another 30 min at room temperature. Reactions were quenched with SDS loading buffer (15 μL-4×) and run on SDS-PAGE.

MAGL [2] = target: T4, MAGL (Homo sapiens, UniProt Q99685); experiment: In vitro competitive activity-based protein profiling (FP-Rh or HT-01 probe, gel-based); type: biochemical; settings: prefrontal cortex (PFC) proteome, concentration not given (μM)
T4 construct: Proteomes (human prefrontal cortex or cell membrane fractions); from tissue
T4 sequence (Q99685 1-303): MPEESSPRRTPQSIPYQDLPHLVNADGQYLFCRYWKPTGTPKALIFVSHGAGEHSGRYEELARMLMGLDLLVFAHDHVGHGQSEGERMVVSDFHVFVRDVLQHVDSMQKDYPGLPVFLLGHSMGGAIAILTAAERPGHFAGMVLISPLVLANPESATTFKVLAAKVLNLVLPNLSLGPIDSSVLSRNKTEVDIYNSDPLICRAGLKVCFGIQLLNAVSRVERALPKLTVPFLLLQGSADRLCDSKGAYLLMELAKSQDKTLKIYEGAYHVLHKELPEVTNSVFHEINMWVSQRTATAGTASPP
Method in brief: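 Human prefrontal cortex or cell membrane proteomes (1.0 mg/mL total protein) were preincubated with varying inhibitor concentrations for 30 min at 37° C. FP-Rh or HT-01 probe (50 μM DMSO stock) was then added for 30 min at room temperature, and samples were quenched in SDS loading buffer and resolved by SDS-PAGE.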

SMILES: CS(=O)(=O)N1CCC2(CC1)CN(c1cc(C(F)(F)F)ccc1CN1CCN(C(=O)OC(C(F)(F)F)C(F)(F)F)CC1)C2 [Example 207, 1,1,1,3,3,3-Hexafluoropropan-2-yl 4-(2-(7-(methylsulfonyl)-2,7-diazaspiro[3,5]nonan-2-yl)-4-(trifluoromethyl)benzyl) piperazine-1-carboxylate]
- % Inh 5 mg/kg MGLL (Mouse) (MAGL [1]): ### (### is ≥75%)
- pIC50 (MGLL): > 7.00
- % Inh MGLL Brain (Mouse, μM) (MGLL): ### (### is ≥75%)
- % Inh ABHD6 Brain (Mouse, μM) (ABHD6): ## (## is between 25 and 75%)
- pIC50 (ABHD6; mouse proteome): < 6.00

SMILES: O=C(O)C1CCN(c2ccc(CN3CCC4(CC3)CCN(C(=O)OC(C(F)(F)F)C(F)(F)F)C4)cc2C(F)(F)F)CC1 [Example 219, l-(4-((2-(((1,1,1,3,3,3-Hexafluoropropan-2-yl)oxy)carbonyl)-2,8-diazaspiro[4.5]decan-8-yl)methyl)-2-(trifluoromethyl)phenyl) piperidine-4-carboxylic acid]
- % Inh MGLL PFC (Human, μM) (MAGL [2]): ### (### is ≥75%)
- % Inh MGLL Brain (Mouse, μM) (MGLL): ## (## is between 25 and 75%)
- % Inh ABHD6 Brain (Mouse, μM) (ABHD6): ### (### is ≥75%)

SMILES: O=C(O)C1CCN(Cc2cc(C(F)(F)F)ccc2CN2CCC3(CC2)CCN(C(=O)OC(C(F)(F)F)C(F)(F)F)C3)CC1 [Example 220, l-(2-((2-(((1,1,1,3,3,3-Hexafluoropropan-2-yl)oxy)carbonyl)-2,8-diazaspiro[4.5]decan-8-yl)methyl)-5-(trifluoromethyl)benzyl) piperidine-4-carboxylic acid]
- % Inh MGLL PFC (Human, μM) (MAGL [2]): ## (## is between 25 and 75%)
- % Inh MGLL Brain (Mouse, μM) (MGLL): ## (## is between 25 and 75%)
- % Inh ABHD6 Brain (Mouse, μM) (ABHD6): # (# is ≤25%)

SMILES: O=C(O)C1CCN(c2cc(CN3CCC4(CC3)CCN(C(=O)OC(C(F)(F)F)C(F)(F)F)C4)ccc2C(F)(F)F)CC1 [Example 221, 1-(5-((2-(((1,1,1,3,3,3-Hexafluoropropan-2-yl)oxy)carbonyl)-2.8-diazaspiro[4.5]decan-8-yl)methyl)-2-(trifluoromethyl)phenyl) piperidine-4-carboxylic acid]
- % Inh MGLL PFC (Human, μM) (MAGL [2]): ### (### is ≥75%)
- % Inh MGLL Brain (Mouse, μM) (MGLL): ### (### is ≥75%)
- % Inh ABHD6 Brain (Mouse, μM) (ABHD6): ### (### is ≥75%)

SMILES: O=C(O)C1CCN(c2cc(S(F)(F)(F)(F)F)ccc2CN2CCC3(CC2)CCN(C(=O)OC(C(F)(F)F)C(F)(F)F)C3)CC1 [Example 222, l-(2-((2-(((1,1,1,3,3,3-Hexafluoropropan-2-yl)oxy)carbonyl)-2,8-diazaspiro[4.5]decan-8-yl)methyl)-5-(pentafluoro-16-sulfaneyl)phenyl)piperidine-4-carboxylic acid]
- % Inh MGLL PFC (Human, μM) (MAGL [2]): ### (### is ≥75%)
- % Inh MGLL Brain (Mouse, μM) (MGLL): ### (### is ≥75%)
- % Inh ABHD6 Brain (Mouse, μM) (ABHD6): ## (## is between 25 and 75%)

SMILES: O=C(O)C1CCN(Cc2cc(CN3CCC4(CC3)CCN(C(=O)OC(C(F)(F)F)C(F)(F)F)C4)cc(C(F)(F)F)c2)CC1 [Example 223, l-(3-((2-(((1,1,1,3,3,3-Hexafluoropropan-2-yl)oxy)carbonyl)-2,8-diazaspiro[4.5]decan-8-yl)methyl)-5-(trifluoromethyl)benzyl) piperidine-4-carboxylic acid]
- % Inh MGLL PFC (Human, μM) (MAGL [2]): ## (## is between 25 and 75%)
- % Inh MGLL Brain (Mouse, μM) (MGLL): # (# is ≤25%)
- % Inh ABHD6 Brain (Mouse, μM) (ABHD6): # (# is ≤25%)

SMILES: O=C(O)C1CCN(Cc2cc(CN3CCC4(CC3)CCN(C(=O)OC(C(F)(F)F)C(F)(F)F)C4)ccc2Cl)CC1 [Example 224, l-(2-Chloro-5-((2-(((1,1,1,3,3,3-hexafluoropropan-2-yl)oxy)carbonyl)-2,8-diazaspiro[4.5]decan-8-yl)methyl)benzyl)piperidine-4-carboxylic acid]
- % Inh MGLL PFC (Human, μM) (MAGL [2]): # (# is ≤25%)
- % Inh MGLL Brain (Mouse, μM) (MGLL): ## (## is between 25 and 75%)
- % Inh ABHD6 Brain (Mouse, μM) (ABHD6): # (# is ≤25%)

SMILES: O=C(O)C1CCN(Cc2ccc(CN3CCC4(CC3)CCN(C(=O)OC(C(F)(F)F)C(F)(F)F)C4)cc2C(F)(F)F)CC1 [Example 225, l-(4-((2-(((1,1,1,3,3,3-Hexafluoropropan-2-yl)oxy)carbonyl)-2,8-diazaspiro[4.5]decan-8-yl)methyl)-2-(trifluoromethyl)benzyl) piperidine-4-carboxylic acid]
- % Inh MGLL PFC (Human, μM) (MAGL [2]): ## (## is between 25 and 75%)
- % Inh MGLL Brain (Mouse, μM) (MGLL): # (# is ≤25%)
- % Inh ABHD6 Brain (Mouse, μM) (ABHD6): ## (## is between 25 and 75%)

SMILES: O=C(O)C1CCN(c2cc(CN3CCC4(CC3)CCN(C(=O)OC(C(F)(F)F)C(F)(F)F)C4)cc(S(F)(F)(F)(F)F)c2)CC1 [Example 226, 1-(3-((2-(((1,1,1,3,3,3-Hexafluoropropan-2-yl)oxy)carbonyl)-2,8-diazaspiro[4.5]decan-8-yl)methyl)-5-(pentafluoro-16-sulfancyl)phenyl)piperidine-4-carboxylic acid]
- % Inh MGLL PFC (Human, μM) (MAGL [2]): ### (### is ≥75%)
- % Inh MGLL Brain (Mouse, μM) (MGLL): ### (### is ≥75%)
- % Inh ABHD6 Brain (Mouse, μM) (ABHD6): ## (## is between 25 and 75%)

SMILES: CC1(OCc2cc(N3CCC(C(=O)O)CC3)cc(C(F)(F)F)c2)CCN(C(=O)OC(C(F)(F)F)C(F)(F)F)CC1 [Example 227, l-(3-(((1-(((1,1,1,3,3,3-Hexafluoropropan-2-yl)oxy)carbonyl)-4-melhylpiperidin-4-yl)oxy)methyl)-5-(trifluoromethyl)phenyl) piperidine-4-carboxylic acid]
- % Inh MGLL PFC (Human, μM) (MAGL [2]): ### (### is ≥75%)
- % Inh MGLL Brain (Mouse, μM) (MGLL): ### (### is ≥75%)
- % Inh ABHD6 Brain (Mouse, μM) (ABHD6): ## (## is between 25 and 75%)

— US11161856B2 (H. Lundbeck A/S, priority 2017, dated 2021)
